Patent US5250518A, “O-methyl derivatives of azithromycin A” (priority 1990, dated 1993)
Converted amounts (≈) assume the structure as drawn. Like-named read-outs stand apart in the source and are kept apart here.

Key:
[1] = tested on: Staphilococcus aureus ATCC 6538-P; experiment: Antibacterial in vitro activity, tube dilution method (Table 1); assay type: cell-based; settings: 24 h
Experimental: (§1) O-methyl derivatives of azithromycin A of the formulae (Ii)-(Il) and their pharmaceutically acceptable addition salts have a potent antimicrobial activity. The preliminary antibacterial in vitro activity of 6-O-methyl-azithromycin A (Ii) was determined on a series of gram-positiveand gram-negative test bacteria and clinical isolates in comparison with erythromycin A. The assessment was performed by the "tube dilution" method. In the investigation there were used 24-hours cultures in "brain hearth bouillon" of standard strains and freshly isolated strains from a clinical sample.
(§2) Substrate: Brain hearth bouillon
(§3) Incubation: 24 hours, 37° C.
(§4) MIC: Minimal Inhibitory Concentration (μg/mL)
(§5) MBC: Minimal Bactericidal Concentration (μg/mL)

[2] = tested on: Streptococcus faecalis ATCC-8043; experiment: as above; assay type: cell-based; settings: Enterococcus faecalis, ATCC8043, 24 h
Experimental: as §1, §2, §3, §4, §5

[3] = tested on: Klebsiella pneumoniae NCTC-10499; experiment: as above; assay type: cell-based; settings: NCTC10499, 24 h
Experimental: as §1, §2, §3, §4, §5

[4] = tested on: Pseudomonas aeruginosa NCTC-10490; experiment: as above; assay type: cell-based; settings: NCTC10490, 24 h
Experimental: as §1, §2, §3, §4, §5

[5] = cited from earlier work
[6] = tested on: Haemophylus influenzae 4028; experiment: Antibacterial in vitro activity against clinical isolates, tube dilution method (Table 2); assay type: cell-based; settings: clinical isolate, Brain hearth bouillon, 24 hours, 37° C.
Experimental: as §1, §2, §3, §4
(§6) MBC: Minimal Bactericidal Concentation (μg/mL)

[7] = tested on: Staphylococcus aureus 10097; experiment: as above; assay type: cell-based; settings: clinical isolate, Brain hearth bouillon, 24 hours, 37° C.
Experimental: as §1, §2, §3, §4, §6

[8] = tested on: Staphylococcus aureus 10099; experiment: as above; assay type: cell-based; settings: clinical isolate, Brain hearth bouillon, 24 hours, 37° C.
Experimental: as §1, §2, §3, §4, §6

[9] = tested on: Staphylococcus saprophyticus 3947; experiment: as above; assay type: cell-based; settings: clinical isolate, Brain hearth bouillon, 24 hours, 37° C.
Experimental: as §1, §2, §3, §4, §6

[10] = tested on: Streptococcus pneumoniae 4050; experiment: as above; assay type: cell-based; settings: clinical isolate, Brain hearth bouillon, 24 hours, 37° C.
Experimental: as §1, §2, §3, §4, §6

[11] = tested on: Streptococcus faecalis 10390; experiment: as above; assay type: cell-based; settings: Enterococcus faecalis, clinical isolate, Brain hearth bouillon, 24 hours, 37° C.
Experimental: as §1, §2, §3, §4, §6

Sarcina lutea ATCC-9341 = experiment: Antibacterial in vitro activity, tube dilution method (Table 1); assay type: cell-based; settings: Micrococcus luteus, ATCC9341, Brain hearth bouillon, 24 hours, 37° C.
Experimental: (§7) The preliminary antibacterial in vitro activity of 6-O-methyl-azithromycin A (Ii) was determined on a series of gram-positiveand gram-negative test bacteria and clinical isolates in comparison with erythromycin A. The assessment was performed by the "tube dilution" method. In the investigation there were used 24-hours cultures in "brain hearth bouillon" of standard strains and freshly isolated strains from a clinical sample.

[12] = tested on: Escherichia coli ATCC 10536; experiment: as above; assay type: cell-based; settings: ATCC10536, Brain hearth bouillon, 24 hours, 37° C.
Experimental: as §7

[13] = tested on: Bacillus pumilus NCTC 8241; experiment: Antibacterial in vitro activity in comparison with azithromycin (Table 3); assay type: cell-based; settings: NCTC8241, Brain hearth Bouillon, 24-48 hours, 37° C., inoculum 10^-5 -10^-6 cfu/mL
Text: (§8) In Table 3 there are represented in vitro tests of 6-O-methyl- (Ii), 6,11-di-O-methyl- (Ij), 11-O-methyl- (Ik) and 6,11,4"-tri-O-methyl-azithromycin A (II) in comparison with azithromycin.

[14] = tested on: Staphylococcus epidermidis ATCC 12228; experiment: as above; assay type: cell-based; settings: ATCC12228, Brain hearth Bouillon, 24-48 hours, 37° C., inoculum 10^-5 -10^-6 cfu/mL
Text: as §8

[15] = tested on: Escherichia coli ATCC 10536; experiment: as above; assay type: cell-based; settings: ATCC10536, Brain hearth Bouillon, 24-48 hours, 37° C., inoculum 10^-5 -10^-6 cfu/mL
Text: as §8

ATCC 10240 = experiment: as above; assay type: cell-based; settings: Brain hearth Bouillon, 24-48 hours, 37° C., inoculum 10^-5 -10^-6 cfu/mL
Text: as §8

[16] = tested on: Bacillus cereus NCTC 10320; experiment: as above; assay type: cell-based; settings: NCTC10320, Brain hearth Bouillon, 24-48 hours, 37° C., inoculum 10^-5 -10^-6 cfu/mL
Text: as §8

ATCC 8043 = experiment: as above; assay type: cell-based; settings: Staphylococcus faecalis, ATCC8043; Brain hearth Bouillon, 24-48 hours, 37° C., inoculum 10^-5 -10^-6 cfu/mL
Text: as §8

Sarcina lutea ATCC 9341 = experiment: as above; assay type: cell-based; settings: Micrococcus luteus, ATCC9341; Brain hearth Bouillon, 24-48 hours, 37° C., inoculum 10^-5 -10^-6 cfu/mL
Text: as §8

[17] = tested on: Corynebacterium xerosis NCTC 9755; experiment: as above; assay type: cell-based; settings: NCTC9755, Brain hearth Bouillon, 24-48 hours, 37° C., inoculum 10^-5 -10^-6 cfu/mL
Text: as §8

[18] = tested on: Pseudomonas aeruginosa NCTC 10490; experiment: as above; assay type: cell-based; settings: NCTC10490, Brain hearth Bouillon, 24-48 hours, 37° C., inoculum 10^-5 -10^-6 cfu/mL
Text: as §8

[19] = tested on: Bacillus subtilis NCTC 8241; experiment: as above; assay type: cell-based; settings: Bacillus subtilis, NCTC8241; Brain hearth Bouillon, 24-48 hours, 37° C., inoculum 10^-5 -10^-6 cfu/mL
Text: as §8

ATCC 6538P = experiment: as above; assay type: cell-based, Staphilococcus aureus
Text: as §8

[20] = in comparison with the parent antibiotic (erythromycin A); cited from earlier work
[21] = tested on: gram-negative microorganisms; settings: in comparison with the parent antibiotic (erythromycin A); cited from earlier work
[22] = tested on: gram-positive microorganisms; settings: in comparison to erythromycin A; cited from earlier work
[23] = read-out: MBC (Minimal Bactericidal Concentration)
[24] = read-out: MIC (Minimal Inhibitory Concentration)
[25] = read-out: MBC (Minimal Bactericidal Concentation)
[26] = Brain hearth Bouillon, 24-48 hours, 37° C., inoculum 10^-5 -10^-6 cfu/mL, read-out: MIC

CC[C@H]1OC(=O)[C@H](C)[C@@H](O[C@H]2C[C@@](C)(OC)[C@@H](O)[C@H](C)O2)[C@H](C)[C@@H](O[C@@H]2O[C@H](C)C[C@H](N(C)C)[C@H]2O)[C@](C)(O)C[C@@H](C)C(=O)[C@H](C)[C@@H](O)[C@]1(C)O [Erythromycin A, reference compound]
MBC [1, 23]: 0.8 µg/mL (≈ 1.09 µM)
MIC [1, 24]: 0.2 µg/mL (≈ 0.273 µM)
MBC [2, 23]: 0.8 µg/mL (≈ 1.09 µM)
MIC [2, 24]: 0.2 µg/mL (≈ 0.273 µM)
MBC [3, 23]: > 50 µg/mL
MIC [3, 24]: > 50 µg/mL
MBC [4, 23]: > 50 µg/mL
MIC [4, 24]: > 50 µg/mL
behaviour in acidic medium ([5]; acidic medium): easily converted into anhydroerythromycin
MBC [6, 25]: 0.2 µg/mL (≈ 0.273 µM)
MIC [6, 24]: 0.05 µg/mL (≈ 0.0681 µM)
MBC [7, 25]: 0.4 µg/mL (≈ 0.545 µM)
MIC [7, 24]: 0.1 µg/mL (≈ 0.136 µM)
MBC [8, 25]: 0.2 µg/mL (≈ 0.273 µM)
MIC [8, 24]: 0.1 µg/mL (≈ 0.136 µM)
MBC [9, 25]: 0.8 µg/mL (≈ 1.09 µM)
MIC [9, 24]: 0.4 µg/mL (≈ 0.545 µM)
MBC [10, 25]: 0.4 µg/mL (≈ 0.545 µM)
MIC [10, 24]: 0.1 µg/mL (≈ 0.136 µM)
MBC [11, 25]: 3.1 µg/mL (≈ 4.22 µM)
MIC [11, 24]: 0.8 µg/mL (≈ 1.09 µM)
MBC (Sarcina lutea ATCC-9341; [23]): 0.4 µg/mL (≈ 0.545 µM)
MIC (Sarcina lutea ATCC-9341; [24]): 0.2 µg/mL (≈ 0.273 µM)
MBC [12, 23]: > 50 µg/mL
MIC [12, 24]: 50 µg/mL (≈ 68.1 µM)

CC[C@H]1OC(=O)[C@H](C)[C@@H](O[C@H]2C[C@@](C)(OC)[C@@H](O)[C@H](C)O2)[C@H](C)[C@@H](O[C@@H]2O[C@H](C)C[C@H](N(C)C)[C@H]2O)[C@](C)(OC)C[C@@H](C)CN(C)[C@H](C)[C@@H](OC)[C@]1(C)O [Ij, 6,11-Di-O-Methyl-azithromycin A]
MIC [13]: 0.78 µg/mL (≈ 1 µM)
MIC [14]: 1.56 µg/mL (≈ 2.01 µM)
MIC [15]: 6.25 µg/mL (≈ 8.04 µM)
MIC (ATCC 10240): 0.78 µg/mL (≈ 1 µM)
MIC [16]: 1.56 µg/mL (≈ 2.01 µM)
MIC (ATCC 8043): 0.78 µg/mL (≈ 1 µM)
MIC (Sarcina lutea ATCC 9341): 0.05 µg/mL (≈ 0.0643 µM)
MIC [17]: 12.5 µg/mL (≈ 16.1 µM)
MIC [18]: 100 µg/mL (≈ 129 µM)
MIC [19]: 0.78 µg/mL (≈ 1 µM)
MIC (ATCC 6538P; [26]): 1.56 µg/mL (≈ 2.01 µM)

CC[C@H]1OC(=O)[C@H](C)[C@@H](O[C@H]2C[C@@](C)(OC)[C@@H](OC)[C@H](C)O2)[C@H](C)[C@@H](O[C@@H]2O[C@H](C)C[C@H](N(C)C)[C@H]2O)[C@](C)(OC)C[C@@H](C)CN(C)[C@H](C)[C@@H](OC)[C@]1(C)O [Il, 6,11,4"Tri-O-Methyl-azithromycin A]
MIC [13]: 3.12 µg/mL (≈ 3.95 µM)
MIC [14]: 3.12 µg/mL (≈ 3.95 µM)
MIC [15]: 6.25 µg/mL (≈ 7.9 µM)
MIC (ATCC 10240): 3.12 µg/mL (≈ 3.95 µM)
MIC [16]: 3.12 µg/mL (≈ 3.95 µM)
MIC (ATCC 8043): 0.78 µg/mL (≈ 0.986 µM)
MIC (Sarcina lutea ATCC 9341): 0.05 µg/mL (≈ 0.0632 µM)
MIC [17]: 25 µg/mL (≈ 31.6 µM)
MIC [18]: 200 µg/mL (≈ 253 µM)
MIC [19]: 3.12 µg/mL (≈ 3.95 µM)
MIC (ATCC 6538P; [26]): 3.12 µg/mL (≈ 3.95 µM)

CC[C@H]1OC(=O)[C@H](C)[C@@H](O[C@H]2C[C@@](C)(OC)[C@@H](O)[C@H](C)O2)[C@H](C)[C@@H](O[C@@H]2O[C@H](C)C[C@H](N(C)C)[C@H]2O)[C@](C)(O)C[C@@H](C)CN(C)[C@H](C)[C@@H](O)[C@]1(C)O [azithromycin, N-methyl-11-aza-10-deoxo-10-dihydroerythromycin A (9-deoxo-9a-aza-9a-methyl-9a-homoerythromycin A)]
concentration in the tissues [20]: significantly higher conncentration in the tissues
stability in acidic medium in comparison with the parent antibiotic ([5]; versus erythromycin A): improved stability in acidic medium
MIC [13]: 0.2 µg/mL (≈ 0.267 µM)
MIC [14]: 0.1 µg/mL (≈ 0.134 µM)
MIC [15]: 0.78 µg/mL (≈ 1.04 µM)
MIC (ATCC 10240): 0.39 µg/mL (≈ 0.521 µM)
MIC [16]: 0.39 µg/mL (≈ 0.521 µM)
MIC (ATCC 8043): 0.05 µg/mL (≈ 0.0668 µM)
MIC (Sarcina lutea ATCC 9341): 0.05 µg/mL (≈ 0.0668 µM)
MIC [17]: 6.25 µg/mL (≈ 8.34 µM)
MIC [18]: 100 µg/mL (≈ 134 µM)
MIC [19]: 0.39 µg/mL (≈ 0.521 µM)
MIC (ATCC 6538P): 1.56 µg/mL (≈ 2.08 µM)
in vitro activity against gram-negative microorganisms [21]: improved in vitro activity against gram-negative microorganisms

CC[C@H]1OC(=O)[C@H](C)[C@@H](O[C@H]2C[C@@](C)(OC)[C@@H](O)[C@H](C)O2)[C@H](C)[C@@H](O[C@@H]2O[C@H](C)C[C@H](N(C)C)[C@H]2O)[C@](C)(OC)C[C@@H](C)C(=O)[C@H](C)[C@@H](O)[C@]1(C)O [clarithromycin, 6-O-methyl-erythromycin A]
in vitro activity against gram-positive microorganisms [22]: improved in vitro activity against gram-positive microorganisms
